Values joined by “and” are separate entries in the source; they are usually repeats but may differ in a detail not shown here. Equal entries are not always repeated. Structures can show the parent of a compound that is named as a salt.
target: D(1A) dopamine receptor (Bos taurus, UniProt Q95136)
Sequence (Q95136 whole entry): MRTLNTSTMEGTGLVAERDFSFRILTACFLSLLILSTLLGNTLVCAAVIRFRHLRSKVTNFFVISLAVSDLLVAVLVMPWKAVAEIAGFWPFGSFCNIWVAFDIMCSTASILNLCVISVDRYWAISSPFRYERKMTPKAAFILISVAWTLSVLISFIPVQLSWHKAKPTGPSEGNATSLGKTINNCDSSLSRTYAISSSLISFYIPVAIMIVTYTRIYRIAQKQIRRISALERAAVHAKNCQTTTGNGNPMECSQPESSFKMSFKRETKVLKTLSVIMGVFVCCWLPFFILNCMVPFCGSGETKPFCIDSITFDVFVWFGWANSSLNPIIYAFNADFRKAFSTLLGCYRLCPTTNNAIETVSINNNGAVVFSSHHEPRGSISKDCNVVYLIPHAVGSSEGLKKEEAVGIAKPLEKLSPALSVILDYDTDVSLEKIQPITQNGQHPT

SMILES | Ki [nM]
O=c1[nH]c2ccccc2n1C1CCN(CCCC(c2ccc(F)cc2)c2ccc(F)cc2)CC1 [1-(1-(4,4-bis(4-fluorophenyl)butyl)piperidin-4-yl)-1H-benzo[d]imidazol-2(3H)-one] | 4100
O=C(CCCN1CCC(O)(c2ccc(Cl)cc2)CC1)c1ccc(F)cc1 [4-[4-(4-Chloro-phenyl)-4-hydroxy-piperidin-1-yl]-1-(4-fluoro-phenyl)-butan-1-one;propionate(HCl)] | 650

target: D(2) dopamine receptor (Bos taurus, UniProt P20288)
Sequence (P20288 whole entry): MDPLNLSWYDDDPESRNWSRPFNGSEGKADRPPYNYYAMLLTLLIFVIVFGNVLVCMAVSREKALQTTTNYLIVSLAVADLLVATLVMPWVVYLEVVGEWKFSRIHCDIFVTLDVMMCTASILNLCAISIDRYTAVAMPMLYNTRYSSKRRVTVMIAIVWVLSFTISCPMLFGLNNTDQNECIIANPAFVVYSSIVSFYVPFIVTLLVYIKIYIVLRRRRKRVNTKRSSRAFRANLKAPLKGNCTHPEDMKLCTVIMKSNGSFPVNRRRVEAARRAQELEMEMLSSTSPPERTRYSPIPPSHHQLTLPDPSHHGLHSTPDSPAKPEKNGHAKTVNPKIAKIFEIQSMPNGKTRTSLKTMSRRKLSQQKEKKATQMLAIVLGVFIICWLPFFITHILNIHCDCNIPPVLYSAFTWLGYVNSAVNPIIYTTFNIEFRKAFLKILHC

SMILES | Ki
OCCN1CCN(CCCN2c3ccccc3Sc3ccc(C(F)(F)F)cc32)CC1 [2-[4-[3-[2-(trifluoromethyl)phenothiazin-10-yl]propyl]piperazin-1-yl]ethanol;hydrochloride] | 1.2 nM and 0.5 nM
OCCN1CCN(CC/C=C2/c3ccccc3Sc3ccc(C(F)(F)F)cc32)CC1 [(cis) 2-{4-[3-(2-Trifluoromethyl-thioxanthen-9-ylidene)-propyl]-piperazin-1-yl}-ethanol(Flupentixol)] | 1.1 nM
O=c1[nH]c2ccccc2n1C1CCN(CCCC(c2ccc(F)cc2)c2ccc(F)cc2)CC1 [1-(1-(4,4-bis(4-fluorophenyl)butyl)piperidin-4-yl)-1H-benzo[d]imidazol-2(3H)-one] | 0.8 nM
CN1CCN(CC/C=C2/c3ccccc3Sc3ccc(S(=O)(=O)N(C)C)cc32)CC1 [MLS000028463] | 1.4 nM

From BindingDB's records for doi:10.1176/jnp.8.2.223 (1996)
